The record followed here is ChEMBL document CHEMBL1136538, “1,4-Dihydroxy-2,3-dioxatricyclo[8.4.0.0(4,9)]tetradecane and derivatives with in vitro activity against Plasmodium falciparum, Trypanasoma b brucei, Trypanasoma cruzi, and Leishmaniasis infantum” (Bioorg Med Chem Lett, 2003).

One assay relates to MRC5. Briefly: In vitro cytotoxicity against cell line MRC-5. Particulars: Homo sapiens. In kind it is functional, cell-based.
The next assay relates to Leishmania infantum. Briefly: In vitro anti-protozoal parasite activity against Leishmania infantum L1 strain. Type of assay: functional, organism-based.
For another assay, the system named is Trypanosoma brucei. Briefly: In vitro anti-protozoal parasite activity against Trypanosoma brucei TB-1. In kind it is functional, organism-based.
The subject of the next assay is Trypanosoma cruzi. Briefly: In vitro anti-protozoal parasite activity against Trypanosoma cruzi TC-1. In kind it is functional, organism-based.
In another assay the test system is Plasmodium falciparum. Kind of assay: In vitro anti-protozoal activity against Plasmodium falciparum Ghana. Type of assay: functional, organism-based.

For `OC12CCCCC1C1CCCCC1(O)OO2` (stereo unspecified), the IC50 in the assay on MRC5 is 10 µM; in the assay on Leishmania infantum, above 32 µM; with Trypanosoma brucei it was 13 µM; in the assay with Trypanosoma cruzi, 24 µM; in the assay on Plasmodium falciparum, 0.1 µM.
Taken in the same sequence, the figures for `O=C(O)CCC(=O)OC12CCCCC1C1CCCCC1(O)OO2` (stereo unspecified) were 13 µM, above 32 µM, 4 µM, 13 µM and 1 µM.
For `O=C(O)CC(=O)OC12CCCCC1C1CCCCC1(O)OO2` (stereo unspecified), in that order: above 32 µM, above 32 µM, 10 µM, above 32 µM and 6 µM.
Taken in the same sequence, the figures for `O=C(O)CCCCC(=O)OC12CCCCC1C1CCCCC1(O)OO2` (stereo unspecified) were above 32 µM, above 32 µM, 17 µM, 19 µM and above 32 µM.
In the case of `Cc1ccc(C(=O)Nc2ccc(S(=O)(=O)O)c3cc(S(=O)(=O)O)cc(S(=O)(=O)O)c23)cc1NC(=O)c1cccc(NC(=O)Nc2cccc(C(=O)Nc3cc(C(=O)Nc4ccc(S(=O)(=O)O)c5cc(S(=O)(=O)O)cc(S(=O)(=O)O)c45)ccc3C)c2)c1` [SURAMIN HEXASODIUM], the IC50 in the assay on Trypanosoma brucei was determined as 0.043 µM.
Regarding `O=C(O)CCCC(=O)OC12CCCCC1C1CCCCC1(O)OO2` (stereo unspecified), the IC50 with MRC5 is above 32 µM; in the assay on Leishmania infantum it was above 32 µM; in the assay with Trypanosoma brucei, 16 µM; in the assay on Trypanosoma cruzi, 15 µM; in the assay on Plasmodium falciparum it was 19 µM.
`CO[C@H]1O[C@@H]2O[C@@]3(C)CC[C@H]4[C@H](C)CC[C@@H]([C@H]1C)[C@@]24OO3` [ARTEMETHER] showed a 50% inhibitory concentration (IC50) in the assay on Plasmodium falciparum of 0.025 µM.
In the case of `COC12CCCCC1C1CCCCC1(O)OO2` (stereo unspecified), the IC50 in the assay with MRC5 was 8 µM; in the assay with Leishmania infantum, above 32 µM; with Trypanosoma brucei it was 16 µM; in the assay with Trypanosoma cruzi, 8 µM; with Plasmodium falciparum, 5 µM.
On to `CC1CCCC2C3CCCC(C)C3(O)OOC12O` (stereo unspecified), for which the IC50 in the assay with MRC5, in the assay with Leishmania infantum, with Trypanosoma cruzi and with Plasmodium falciparum was above 32 µM in each case.
